Experimental data from article PMC12040169 (PLOS Biology, 2025).

Assay: in vitro
Settings: human, hela cells, % viability

Compound | viability at 28.5 h, 10 µM [%]
CCOc1ccc(-n2c(SCC(=O)Nc3cc(C(=O)O)ccc3Cl)nc3ccccc3c2=O)cc1 [CBK297512] | 109
O=C(CSc1ncc(C(=O)O)n1-c1ccc(F)cc1)NCCc1ccc(F)cc1 [CBK297513] | 93.3
O=C(Nc1ccc(Cl)c(Cl)c1)N1CCN(c2n[nH]c(=O)[nH]c2=O)CC1 [CBK297514] | 89.4
Cc1ccc2c(CSc3nc(N)cc(N)n3)cc(=O)oc2c1C [CBK297519] | 87.7
C=CCn1c(SCC(=O)Nc2nc3ccc(OCC)cc3s2)nc2cc(C(=O)O)ccc2c1=O [CBK297520] | 113
CN(c1ccccc1)S(=O)(=O)c1ccc(C(=O)NCc2cccnc2)cc1 [CBK297522] | 95.5
CCCCOc1ccc(C=Cc2nc3sc(C(=O)O)c(C)c3c(=O)[nH]2)cc1 [CBK297524] | 86.5
Cc1ccc2[nH]c(SCC(=O)Nc3ccc(C(=O)O)cc3)nc2c1 [CBK297526] | 85.7
COc1ccc(-c2nnc(SCC(=O)NC(=O)c3ccccc3)n2CC(C)C)cc1 [CBK297527] | 101
Cc1nc2sc(C(=O)OCc3cc(=O)oc4cc5c(cc34)CCC5)c(C)c2c(=O)[nH]1 [CBK297528] | 114
Cc1ccc(C)c(Sc2ccc(S(=O)(=O)Nc3ccc(C(=O)O)cc3)cc2)c1 [CBK297529] | 109
CC1(C)C(=O)Nc2ccccc2N1C(=O)COc1ncnc2sc3c(c12)CCC3 [CBK297530] | 89.9
CC(C)NS(=O)(=O)c1ccc(NS(=O)(=O)c2ccc(F)c(C(=O)O)c2)cc1 [CBK297533] | 93.6
CC(=O)Nc1ccc2c(CSc3nnc(-c4ccco4)n3C)cc(=O)oc2c1 [CBK297534] | 91.7
O=C(COc1ccc(C(=O)c2ccc(F)cc2)cc1)c1ccc2c(c1)OCCO2 [CBK297536] | 111
Cc1c(C(=O)O)sc2nc(C=Cc3ccc(OCCC(C)C)cc3)[nH]c(=O)c12 [CBK297539] | 94
CSc1nc2ccc(NS(=O)(=O)c3ccc(Cl)c(C(=O)O)c3)cc2s1 [CBK297541] | 82.6

Compound | viability at 28.5 h, 10 µM [%]
O=C(Cn1cnc2ccc([N+](=O)[O-])cc2c1=O)Nc1ccc(C(=O)O)cc1 [CBK297542] | 85.5
COc1ccc(O)c(C(=O)c2cnn(C(=O)c3ccc(C)cc3)c2)c1 [CBK297546] | 86.3
CCCn1c(SCC(=O)NCc2ccc(OC)cc2)n[nH]c1=O [CBK297549] | 90.2
CC(Sc1ccc(S(=O)(=O)N2CCN(C)CC2)cn1)C(=O)Nc1ccc(C(C)(C)C)cc1 (stereo not drawn) [CBK297551] | 106
Cc1nn(-c2ccccc2)c2sc(C(=O)N3CCN(C(=O)c4ccccc4)CC3)cc12 [CBK297554] | 96.1
CCCn1c(N)c(C(=O)CSc2ncnc3sc4c(c23)CCCC4)c(=O)[nH]c1=O [CBK297556] | 77.8
CC(C)(C)c1cc(NC(=O)Cn2nc(C(=O)O)c3ccccc3c2=O)n(-c2ccccc2)n1 [CBK297557] | 85.1
Cc1nc(-c2ccc(CCNC(=O)c3cc(O)nc4ccccc34)s2)cs1 [CBK297720] | 94.2
COc1cc(Nc2cc(C)nc3ncnn23)ccc1N1CCCC1=O [CBK297725] | 102
O=C(O)c1cccc(-c2nc(-c3ccc(S(=O)(=O)N4CCOCC4)cc3)cs2)c1 [CBK297730] | 85.8
O=C(O)c1csc(S(=O)(=O)Nc2ccc(Br)cc2Cl)c1 [CBK297731] | 101
Cn1ncc2c(SCc3cc4c(cc3Br)OCCO4)ncnc21 [CBK297732] | 104
COc1ccc(CC(=O)N2CCN(C(C)c3nc4ccccc4s3)CC2)cc1F (stereo not drawn) [CBK297733] | 95.9
CCN(c1ccc(NC(=O)Cn2nc(C(=O)O)c3ccccc3c2=O)cc1)C(C)C [CBK297734] | 94.5
CN(C)C(=O)CCc1nc(-c2ccccn2)no1 [CBK297735] | 88.3
NC(=O)c1ccc(C(=O)OCc2ccc(-c3ccccc3)cc2)cc1 [CBK297736] | 95.7
